Experimental data as given in patent US10758609B2, “Cross-reactive T-cell epitopes of HIV, SIV, and FIV for vaccines in humans and cats” (priority 2015, dated 2020).
Entries after “also recorded” stand apart in the source; their conditions may differ.

Legend:
[1] = tested on: CD8^+ T cells from HIV^+ subjects; test: FACS-based intracellular staining (ICS) for cytolysin (perforin) and cytotoxins (GrzA, GrzB) in CD8+ T cells; settings: HIV+ human subjects; for Cyto: CD8+ T-cell cytotoxins (perforin, GrzA & B), frequency of responders: FIV epitope peptide; for Cyto (cytolysin/cytotoxin production), frequency of responders: FIV peptides
Method in brief: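 Peptides tested with PBMC and T cells from HIV^+ subjects, some on ART. CFSE proliferation positive at ≥2% CFSE^low CD4^+ or CD8^+ T cells; intracellular perforin, granzyme A and B staining by FACS positive at ≥0.2%.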

FIVFC1 [2] = test: FIV enhancement and suppression (E/S) analysis of in vitro FIV infection of feline PBMC; format: cell-based, feline immunodeficiency virus; settings: for Direct effect on in vitro FIV infection (enhancement/suppression): 7 μg/mL peptide or MAP, PBMC of uninfected SPF cats, versus virus control; for FIV Test E/S (enhancer/suppressor analysis): FIV peptides, in vitro FIV infection of uninfected cat PBMC
Method: FIV viral enhancement or suppression was determined using a 48-well modification of the method described for detecting FIV enhancing activity of IFNγ and FIV suppressive activity of IFNα [37]. […] MAP1c contained four branched chains of peptide Fp4-3. T-cell mitogen concanavalin A (ConA) at 4 μg/mL was used as an infection enhancing control. Six hours after the culturing with peptide, MAP, or ConA, varying dilutions of FIVFC1 were added to the wells. Seventy-two hours later the cells were re-cultured in fresh culture media with ConA-stimulated autologous PBMC (0.25-0.5×10^6) using the same amount of corresponding peptide, MAP, ConA or media. On Day 7, 10, and 13 of culture, 0.5 mL of culture fluid was collected and 0.5 mL of fresh media added to maintain a consistent volume. The harvested culture samples were analyzed for FIV titer using the previously described RT assay. The results are shown as the end-point dilution titer from two studies using PBMC from different SPF donors.
Statistical analysis. The statistically significant differences between the end-point dilution titers of the peptide or MAP culture samples and either the virus control samples or specific MAP culture samples were calculated using a paired Student t-test with a two-tailed distribution (SigmaPlot version 11.0). Statistical comparisons between pre and post-vaccination(s) were similarly performed. The comparison was considered statistically significant when p<0.05.

FIVFC1 [3] = test: as above; format: cell-based, feline immunodeficiency virus; settings: FIV-vaccinated cats; for E/S pMAP: viral enhancement or suppression: Palmitoyled Pam-MAP (pMAP) of the peptide, ** = MAP(Fp4-3/Fp14-1); for E/S: viral enhancement or suppression: peptide
PBMC from cat SBA = format: cell-based; settings: PBMC of cat SBA, 14 wk post-challenge boost

KKKSGKWRMLIDFRV [FRT3-3]
Cyto: CD8+ T-cell cytotoxins (perforin, GrzA & B), frequency of responders [1]: ++++ (>54% (++++))
Cyto (cytolysin/cytotoxin production), frequency of responders [1]: ++++ (>54% (++++))
Direct effect on in vitro FIV infection (enhancement/suppression) (FIVFC1 [2]): significant enhancement; also recorded: enhanced in vitro FIV infection; also recorded: enhance/
FIV Test E/S (enhancer/suppressor analysis) (FIVFC1 [2]): ↑
E/S pMAP: viral enhancement or suppression (FIVFC1 [3]): ↓X
E/S tMAP: viral enhancement or suppression (FIVFC1 [3]; Tat-MAP (tMAP) of the peptide): ↓+
E/S: viral enhancement or suppression (FIVFC1 [3]): ↑

PTDMATLIMAAPGCA [Fp4-3]
Direct effect on in vitro FIV infection (enhancement/suppression) (FIVFC1 [2]): significantly enhanced FIV infection
Direct effect on in vitro FIV infection (enhancement/suppression) (FIVFC1 [2]; listed as Fp4-3 real): enhancing
FIV Test E/S (enhancer/suppressor analysis) (FIVFC1 [2]): ↑
GrzA mRNA (PBMC from cat SBA): low
GrzB mRNA (PBMC from cat SBA): no detectable levels
IFNγ mRNA (PBMC from cat SBA): high
IL2 mRNA (PBMC from cat SBA): low
perforin mRNA (PBMC from cat SBA): no detectable levels
E/S pMAP: viral enhancement or suppression (FIVFC1 [3]): ↑**
E/S: viral enhancement or suppression (FIVFC1 [3]): ↑

WRMLIDFRVLNKL [FRT3-4]
Cyto: CD8+ T-cell cytotoxins (perforin, GrzA & B), frequency of responders [1]: ++++ (>54% (++++))
Cyto (cytolysin/cytotoxin production), frequency of responders [1]: ++++ (>54% (++++))
Direct effect on in vitro FIV infection (enhancement/suppression) (FIVFC1 [2]): significantly suppressed FIV infection; also recorded: suppress
FIV Test E/S (enhancer/suppressor analysis) (FIVFC1 [2]): ↓
E/S: viral enhancement or suppression (FIVFC1 [3]): ↓
